Measured values: patent US7670613B2, “Androgen modulators” (Pfizer Inc., priority 2004, dated 2010)

Legend:
[1] = test system: male Syrian hamsters; assay: Animal model for inhibition of sebum production (hamster ear); assay type: in vivo, Syrian hamster; settings: topical 3.0 w/v %; for % CE reduction: cholesterol ester vs vehicle control; for % CE reduction / % WE reduction: twice daily, five days a week, 4 weeks, right ear; for Sum of WE & CE: sum of % WE and % CE reduction; for % WE reduction: wax ester vs vehicle control
Protocol: Animal Model for Inhibition of Sebum Production
Luderschmidt et al describes an animal model for testing whether compounds are capable of modulating sebum secretion. Arch. Derm. Res. 258, 185-191 (1977). This model uses male Syrian hamsters, whose ears contain sebaceous glands. The product of Example 14 was screened in this model.
Testing for sebum inhibition was carried out in the following manner. Male Syrian hamsters aged 9 to 10 weeks were introduced into the laboratory environment and acclimated for 2 weeks prior to use in the study. Each group consisted of 5 animals and run in parallel with vehicle and positive controls. Prior to administration, a sufficient quantity each compound was dissolved in 1 mL of a solvent consisting of ethanol, and propylene glycol (70/30% v/v) to achieve a final concentration of 3.0 w/v %.
Animals were dosed topically twice daily, five days a week, for 4 weeks. Each dose consisted of 25 micro liters of vehicle control or drug. The dose was applied to the ventral surfaces of both the right and left ears. All animals were sacrificed approximately 18-24 hours after the final dose. The right ears were collected from each animal and used for sebum analysis.
The ears were prepped for HPLC analysis in the following manner. One 8 mm distal biopsy punch was taken, just above the anatomical “V” mark in the ear to normalize the sample area. The punch was pulled apart. The ventral biopsy surface (the area where the topical dose was directly applied to the sebaceous glands) was retained for testing and the dorsal surface of the biopsy punch was discarded.
Tissue samples were blown with N2 gas and stored at −80° C. under nitrogen until HPLC analysis. In addition to ear samples, an aliquot of each drug and vehicle (at least 250 ul) was also stored at −80° C. for inclusion in the HPLC analysis.
HPLC analysis was carried out on an extract of the tissue sample. Tissue samples were contacted with 3 ml of solvent (a 4:1 admixture of 2,2,4-trimethylpentane and isopropyl alcohol). The mixture was shaken for 15 minutes and stored overnight at room temperature, protected from light. The next morning 1 milliliter of water was added to the sample and shaken for 15 minutes. The sample was then centrifuged at approximately 1500 rpm for 15 minutes. Two ml of the organic phase (top layer) was transferred to a glass vial, dried at 37° C., under nitrogen, for approximately 1 hour, and then lyophilized for approximately 48 hours. The samples were then removed from the lyophilizer and each vial was reconstituted with 600 μl of solvent A (trimethylpentane/tetrahydrofuran (99:1). The samples were then recapped and vortexed for 5 minutes.
200 μl of each sample was then transferred to a pre-labeled 200 μl HPLC vial with 200 μL glass inserts. The HPLC vials were placed in the autosampler tray for the Agilent 1100 series HPLC unit. The Agilent 1100 HPLC system consisted of a thermostated autosampler, a quarternary pump, a column heater, and an A/D interface module. All components were controlled by Agilent ChemStation software. A Waters Spherisorb S3W 4.6×100 mm analytical column was maintained at 30° C. by the Agilent column heater unit. The HPLC autosampler was programmed to maintain the sample temperature at 20 C. throughout the run.
10 uL of each sample was injected in triplicate into the column. Two solvents were used for the solvent gradient. Solvent A was an admixture of trimethylpentane and tetrahydrofuran (99:1). Solvent B was ethylacetate. The gradient utilized is described in the table below: […]
The Sedex 75 Evaporative Light Scattering Detector (ELSD) was operated at 45° C. with a gain of 5, and N2 pressure maintained at 3.1 bar. Analog signal obtained by the instrument was sent to the Agilent A/D interface module where it was converted to a digital output. The conversion was based on a 10000 mAU/volt set point and the data rate was set at 10 Hz (0.03 min). […]

[2] = test system: male C3H/HeN mice; assay: Modified telogen conversion assay; assay type: in vivo, mouse; settings: topical 1% and 3% w/v, twice daily for 4 weeks, observed 35 days or longer
Description: The telogen conversion assay measures the potential of a compound to convert the resting stage of the hair growth cycle (“telogen”) to the active stage of the hair growth cycle (“anagen”) in mice. This assay takes advantage of the fact that the fur (i.e. hair) of 7-week-old C3H/HeN mice is in the telogen phase. This phase continues until about 75 days of age. In this assay, selected areas of the mice are shaved, contacted with a test agent, or a control, and the difference in the rate of hair growth is measured (i.e. induction of the anagen phase). The first sign of anagen is the darkening of skin color as melanocytes in the follicles start to synthesize melanin, in preparation for the production of pigmented hairs. This model has a number of advantages. This includes the ready availability of female CH3HeN mice, the ability to screen large numbers of compounds quickly, and the ease of housing and handling such animals.
It has been discovered that male C3H/HeN mice may be used in the telogen conversion assay, when evaluating anti-androgen test compounds. Thus, the model relates to a modification of the existing telogen conversion assay. […]
The treatment area was observed and graded every other day for signs of hair growth. The hair growth response was quantified by recording, for each animal, the day on which signs of hair growth first appeared over the treated area. […]

Structure (SMILES) | % CE reduction [1] | Sum of WE & CE [1] | % WE reduction [1] | Initiation of anagen (first signs of hair growth) versus vehicle control [2]
N#Cc1ccc(O[C@@H]2CCCC[C@H]2C#N)cc1C(F)(F)F (single isomer, unassigned) [Example 72, (trans)-(−)-4-(2-Cyano-cyclohexyloxy)-2-trifluoromethyl-benzonitrile] | 68% | 153 | 85% | –
N#Cc1ccc(O[C@@H]2CCCCC2C#N)cc1C(F)(F)F (stereo in doubt) [Example 14, -4-(2-Cyano-cyclohexyloxy)-2-trifluoromethyl-benzonitrile] | 84% | 179 | 95% | –
CC1CCCCC1Oc1ccc(C#N)c(C(F)(F)F)c1 (stereo not shown) [Example 8, 4-(2-Methyl-cyclohexyloxy)-2-trifluoromethyl-benzonitrile] | – | – | – | not initiated in either of the test groups prior to its occurrence in the vehicle control group
